Measurements: PubChem BioAssay (NCI)
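Values below derive from 48-hour exposures of cells grown in 96-well plates, with endpoints linearly interpolated between the two concentrations bracketing the appropriate inhibition level. Here, GI50 denotes the concentration required for 50% inhibition of growth. The concentration for full growth arrest is given as TGI.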

Key:
Assay in all cases: NCI tumour cell line growth inhibition, 48 h
MDA-MB-435 = test system: MDA-MB-435
HS 578T breast = test system: HS 578T breast
HCT-116 colon = test system: HCT-116 colon
OVCAR-5 ovarian = test system: OVCAR-5 ovarian
RXF 393 renal = test system: RXF 393 renal
SW-620 colon = test system: SW-620 colon
KM12 colon = test system: KM12 colon
SR leukemia = test system: SR leukemia
LOX IMVI melanoma = test system: LOX IMVI melanoma
SK-MEL-2 melanoma = test system: SK-MEL-2 melanoma
HL-60(TB) leukemia = test system: HL-60(TB) leukemia
CAKI-1 renal = test system: CAKI-1 renal
OVCAR-4 ovarian = test system: OVCAR-4 ovarian
BT-549 breast = test system: BT-549 breast
SNB-75 CNS = test system: SNB-75 CNS
MCF7 breast = test system: MCF7 breast
786-0 renal = test system: 786-0 renal
NCI-H23 lung = test system: NCI-H23 lung
HOP-92 NSCLC = test system: HOP-92 NSCLC
IGROV1 ovarian = test system: IGROV1 ovarian
SK-OV-3 ovarian = test system: SK-OV-3 ovarian
NCI-H522 lung = test system: NCI-H522 lung
DU-145 prostate = test system: DU-145 prostate
TK-10 renal = test system: TK-10 renal
NCI/ADR-RES ovarian = test system: NCI/ADR-RES ovarian
SN12C renal = test system: SN12C renal
NCI-H460 lung = test system: NCI-H460 lung
SF-295 CNS = test system: SF-295 CNS
T-47D breast = test system: T-47D breast
A549 NSCLC = test system: A549 NSCLC
MDA-MB-231 breast = test system: MDA-MB-231 breast
OVCAR-8 ovarian = test system: OVCAR-8 ovarian
SF-268 CNS = test system: SF-268 CNS
HCC-2998 colon = test system: HCC-2998 colon
OVCAR-3 ovarian = test system: OVCAR-3 ovarian
MALME-3M melanoma = test system: MALME-3M melanoma
CCRF-CEM leukemia = test system: CCRF-CEM leukemia
UACC-62 melanoma = test system: UACC-62 melanoma
ACHN renal = test system: ACHN renal
SF-539 CNS = test system: SF-539 CNS
HT29 colon = test system: HT29 colon
SNB-19 CNS = test system: SNB-19 CNS
NCI-H226 lung = test system: NCI-H226 lung
SK-MEL-28 melanoma = test system: SK-MEL-28 melanoma
UACC-257 melanoma = test system: UACC-257 melanoma
PC-3 prostate = test system: PC-3 prostate
HCT-15 colon = test system: HCT-15 colon
U251 CNS = test system: U251 CNS
UO-31 renal = test system: UO-31 renal
M14 melanoma = test system: M14 melanoma
A498 renal = test system: A498 renal
K-562 leukemia = test system: K-562 leukemia
EKVX NSCLC = test system: EKVX NSCLC
SK-MEL-5 melanoma = test system: SK-MEL-5 melanoma
MOLT-4 leukemia = test system: MOLT-4 leukemia
HOP-62 NSCLC = test system: HOP-62 NSCLC
RPMI-8226 leukemia = test system: RPMI-8226 leukemia
COLO 205 colon = test system: COLO 205 colon

Compound `c1cc[n+](C2c3ccccc3C([n+]3ccccc3)c3ccccc32)cc1` (stereo unspecified) has a GI50 (MDA-MB-435) of 5.89 µM, a TGI (MDA-MB-435) of 23 µM and a GI50 (HS 578T breast) of 4.4 µM. For the same compound, the TGI (HS 578T breast) was 27 µM, the GI50 (HCT-116 colon) was 10.7 µM and the TGI (HCT-116 colon) was > 100 µM. The GI50 (OVCAR-5 ovarian) was 26.7 µM, the TGI (OVCAR-5 ovarian) was > 100 µM and the GI50 (RXF 393 renal) was 19.5 µM. The TGI (RXF 393 renal) was 86.2 µM, the GI50 (SW-620 colon) was 8.52 µM and the TGI (SW-620 colon) was > 100 µM. For the same compound, the GI50 (KM12 colon) was 6.43 µM, the TGI (KM12 colon) was 50.1 µM and the GI50 (SR leukemia) was 7.64 µM. For the same compound, the TGI (SR leukemia) was > 100 µM, the GI50 (LOX IMVI melanoma) was 15.8 µM and the TGI (LOX IMVI melanoma) was > 100 µM. For the same compound, the GI50 (SK-MEL-2 melanoma) was 15 µM, the TGI (SK-MEL-2 melanoma) was > 66.4 µM and the GI50 (HL-60(TB) leukemia) was 22.6 µM. The TGI (HL-60(TB) leukemia) was > 100 µM, the GI50 (CAKI-1 renal) was > 100 µM and the TGI (CAKI-1 renal) was > 100 µM. For the same compound, the GI50 (OVCAR-4 ovarian) was 18.4 µM, the TGI (OVCAR-4 ovarian) was > 100 µM and the GI50 (BT-549 breast) was 3.64 µM. For the same compound, the TGI (BT-549 breast) was 14.6 µM, the GI50 (SNB-75 CNS) was 1.13 µM and the TGI (SNB-75 CNS) was 3.15 µM. For the same compound, the GI50 (MCF7 breast) was 11.9 µM, the TGI (MCF7 breast) was > 100 µM and the GI50 (786-0 renal) was 15.9 µM. For the same compound, the TGI (786-0 renal) was > 100 µM, the GI50 (NCI-H23 lung) was 5.11 µM and the TGI (NCI-H23 lung) was > 52.4 µM. For the same compound, the GI50 (HOP-92 NSCLC) was 4.45 µM, the TGI (HOP-92 NSCLC) was 50.9 µM and the GI50 (IGROV1 ovarian) was 1.96 µM. The TGI (IGROV1 ovarian) was > 82.8 µM, the GI50 (SK-OV-3 ovarian) was 52.5 µM and the TGI (SK-OV-3 ovarian) was > 100 µM. It also gave a GI50 (NCI-H522 lung) of 4.67 µM, a TGI (NCI-H522 lung) of 30.7 µM and a GI50 (DU-145 prostate) of 14.2 µM. For the same compound, the TGI (DU-145 prostate) was 43.8 µM, the GI50 (TK-10 renal) was 19.2 µM and the TGI (TK-10 renal) was > 100 µM. The GI50 (NCI/ADR-RES ovarian) was > 100 µM, the TGI (NCI/ADR-RES ovarian) was > 100 µM and the GI50 (SN12C renal) was 3.39 µM. For the same compound, the TGI (SN12C renal) was 25.4 µM, the GI50 (NCI-H460 lung) was 21.1 µM and the TGI (NCI-H460 lung) was > 89.4 µM. The GI50 (SF-295 CNS) was 4.2 µM, the TGI (SF-295 CNS) was 80.9 µM and the GI50 (T-47D breast) was 10.1 µM. For the same compound, the TGI (T-47D breast) was 79.6 µM, the GI50 (A549 NSCLC) was 26.6 µM and the TGI (A549 NSCLC) was > 100 µM. The GI50 (MDA-MB-231 breast) was 21.6 µM, the TGI (MDA-MB-231 breast) was > 100 µM and the GI50 (OVCAR-8 ovarian) was 6.23 µM. The TGI (OVCAR-8 ovarian) was > 100 µM, the GI50 (SF-268 CNS) was 2.13 µM and the TGI (SF-268 CNS) was 11.8 µM. The GI50 (HCC-2998 colon) was 10.3 µM, the TGI (HCC-2998 colon) was 31.8 µM and the GI50 (OVCAR-3 ovarian) was 14.1 µM. The TGI (OVCAR-3 ovarian) was > 77 µM, the GI50 (MALME-3M melanoma) was 3.9 µM and the TGI (MALME-3M melanoma) was 18.6 µM. For the same compound, the GI50 (CCRF-CEM leukemia) was 10.7 µM, the TGI (CCRF-CEM leukemia) was > 100 µM and the GI50 (UACC-62 melanoma) was 11.3 µM. The TGI (UACC-62 melanoma) was 28.7 µM, the GI50 (ACHN renal) was > 100 µM and the TGI (ACHN renal) was > 100 µM. The GI50 (SF-539 CNS) was 2.59 µM, the TGI (SF-539 CNS) was 17.3 µM and the GI50 (HT29 colon) was 12.6 µM. For the same compound, the TGI (HT29 colon) was > 75.5 µM, the GI50 (SNB-19 CNS) was 4.13 µM and the TGI (SNB-19 CNS) was 42.8 µM. The GI50 (NCI-H226 lung) was 17.9 µM, the TGI (NCI-H226 lung) was > 100 µM and the GI50 (SK-MEL-28 melanoma) was 5.92 µM. For the same compound, the TGI (SK-MEL-28 melanoma) was > 44.5 µM, the GI50 (UACC-257 melanoma) was 5.93 µM and the TGI (UACC-257 melanoma) was 37 µM. For the same compound, the GI50 (PC-3 prostate) was 4.8 µM, the TGI (PC-3 prostate) was > 100 µM and the GI50 (HCT-15 colon) was > 100 µM. For the same compound, the TGI (HCT-15 colon) was > 100 µM, the GI50 (U251 CNS) was 3.14 µM and the TGI (U251 CNS) was > 90.8 µM. For the same compound, the GI50 (UO-31 renal) was > 100 µM, the TGI (UO-31 renal) was > 100 µM and the GI50 (M14 melanoma) was 41 µM. The TGI (M14 melanoma) was > 100 µM, the GI50 (A498 renal) was 15.8 µM and the TGI (A498 renal) was 73.7 µM. For the same compound, the GI50 (K-562 leukemia) was 12 µM, the TGI (K-562 leukemia) was > 100 µM and the GI50 (EKVX NSCLC) was 3.39 µM. For the same compound, the TGI (EKVX NSCLC) was > 100 µM, the GI50 (SK-MEL-5 melanoma) was 7.91 µM and the TGI (SK-MEL-5 melanoma) was 23.2 µM. The GI50 (MOLT-4 leukemia) was 25.8 µM, the TGI (MOLT-4 leukemia) was > 100 µM and the GI50 (HOP-62 NSCLC) was 5.77 µM. The TGI (HOP-62 NSCLC) was 71.1 µM, the GI50 (RPMI-8226 leukemia) was 6.96 µM and the TGI (RPMI-8226 leukemia) was > 86.4 µM. It also gave a GI50 (COLO 205 colon) of 4.24 µM and a TGI (COLO 205 colon) of 22.2 µM.
